1 molecule from patent US20080287517A1, “Pyrazole Derivatives as Cb1 Modulators” (priority 2005, published 2008) can be followed below.

Structures are written as SMILES.

One may read the IC50 as the midpoint of a concentration-inhibition curve. Low values mean inhibition by little substance, high ones a need for much substance.

The target in the assay is T1, CB1 receptor (Homo sapiens, UniProt P21554).
T1 construct: expressed in transfected cells
Description: [35S]-GTPγS binding assay on membranes from cells stably transfected with the CB1 gene, inhibition of CP55940 (EC80) stimulated binding. It is filed as biochemical. The conditions noted are these: concentration giving half maximal inhibition of GTPγS binding; EC80 of agonist CP55940. How it is done: 10 μg of membranes prepared from cells stably transfected with the CB1 gene were suspended in 200 μl of 100 mM NaCl, 5 mM MgCl2, 1 mM EDTA, 50 mM HEPES (pH 7.4), 1 mM DTT, 0.1% BSA and 100 μM GDP. To this was added an EC80 concentration of agonist (CP55940), the required concentration of test compound and 0.1 μCi [^35S]-GTPγS. The reaction was allowed to proceed at 30° C. for 45 min. Samples were then transferred on to GF/B filters using a cell harvester and washed with wash buffer (50 mM Tris (pH 7.4), 5 mM MgCl2, […]). Filters were then covered with scintillant and counted for the amount of [^35S]-GTPγS retained by the filter.
Activity is measured in the absence of all ligands (minimum activity) or in the presence of an EC80 concentration of CP55940 (maximum activity). These activities are set as 0% and 100% activity respectively. At various concentrations of novel ligand, activity is calculated as a percentage of the maximum activity and plotted. The data are fitted using the equation y=A+((B−A)/1+((C/x)UD)) and the IC50 value determined as the concentration required to give half maximal inhibition of GTPγS binding under the conditions used.
In general terms: GTPγS resists hydrolysis and so accumulates on activated G proteins.

T1 sequence (P21554 whole entry): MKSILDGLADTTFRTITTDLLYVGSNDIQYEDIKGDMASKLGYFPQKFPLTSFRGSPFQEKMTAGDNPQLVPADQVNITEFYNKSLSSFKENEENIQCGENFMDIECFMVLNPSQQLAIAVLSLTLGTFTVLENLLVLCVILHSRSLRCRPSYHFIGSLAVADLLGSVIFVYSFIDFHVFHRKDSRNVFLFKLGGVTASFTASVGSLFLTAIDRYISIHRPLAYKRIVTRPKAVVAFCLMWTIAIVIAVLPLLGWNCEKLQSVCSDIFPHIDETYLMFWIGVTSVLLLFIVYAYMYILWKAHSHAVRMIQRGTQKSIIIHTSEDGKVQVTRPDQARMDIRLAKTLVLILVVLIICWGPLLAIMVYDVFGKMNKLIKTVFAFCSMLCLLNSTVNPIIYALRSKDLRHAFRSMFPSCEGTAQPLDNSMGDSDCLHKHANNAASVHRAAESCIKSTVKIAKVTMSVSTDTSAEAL

Turning to `Cc1ccc(NC(=O)c2nn(-c3ccc(Cl)cc3Cl)c(-c3ccc(OS(=O)(=O)CCC(F)(F)F)cc3)c2C)nc1` [Example 10, 3,3,3-Trifluoro-propane-1-sulfonic acid 4-[2-(2,4-dichlorophenyl)-4-methyl-5-(5-methyl-pyridin-2-ylcarbamoyl)-2H-pyrazol-3-yl]phenyl ester], the IC50 was determined as 1.95 nM.
